Data: PubChem BioAssay AID1963834 (Molecular Pharmacology Branch, DTP, NCI, 2024)

Tested on: 873145-292-R-J1-PDC complex spheroid viability
Assay: Anticancer human tumor 873145-292-R-J1-PDC patient-derived renal clear cell carcinoma cell line growth inhibition [POLQ]
Settings: for IC50: curve of first compound; for viability, T/C: stronger effect = lower value
In short: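 Complex spheroid viability model combining PDC tumour cells with endothelial (HUVEC) and MSC stromal cells. Novobiocin, ART-558 or RP6685 were tested singly and in combination with standard and investigational anticancer drugs. Each was titrated in half-log steps from near clinical Cmax, or from 10 microM where Cmax was unknown.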

[1] = second compound 0.0316 µM, first compound 0.0316 µM
[2] = second compound 0.0316 µM, first compound 0.1 µM
[3] = second compound 0.0316 µM, first compound 0.316 µM
[4] = second compound 0.0316 µM, first compound 1 µM
[5] = second compound 0.0316 µM, first compound 3.16 µM
[6] = second compound 0.0316 µM, first compound 10 µM
[7] = second compound 0.1 µM, first compound 0.0316 µM
[8] = second compound 0.1 µM, first compound 0.1 µM
[9] = second compound 0.1 µM, first compound 0.316 µM
[10] = second compound 0.1 µM, first compound 1 µM
[11] = second compound 0.1 µM, first compound 3.16 µM
[12] = second compound 0.1 µM, first compound 10 µM
[13] = second compound 0.316 µM, first compound 0.0316 µM
[14] = second compound 0.316 µM, first compound 0.1 µM
[15] = second compound 0.316 µM, first compound 0.316 µM
[16] = second compound 0.316 µM, first compound 1 µM
[17] = second compound 0.316 µM, first compound 3.16 µM
[18] = second compound 0.316 µM, first compound 10 µM
[19] = second compound 1 µM, first compound 0.0316 µM
[20] = second compound 1 µM, first compound 0.1 µM
[21] = second compound 1 µM, first compound 0.316 µM
[22] = second compound 1 µM, first compound 1 µM
[23] = second compound 1 µM, first compound 3.16 µM
[24] = second compound 1 µM, first compound 10 µM
[25] = second compound 3.16 µM, first compound 0.0316 µM
[26] = second compound 3.16 µM, first compound 0.1 µM
[27] = second compound 3.16 µM, first compound 0.316 µM
[28] = second compound 3.16 µM, first compound 1 µM
[29] = second compound 3.16 µM, first compound 3.16 µM
[30] = second compound 3.16 µM, first compound 10 µM
[31] = second compound 10 µM, first compound 0.0316 µM
[32] = second compound 10 µM, first compound 0.1 µM
[33] = second compound 10 µM, first compound 0.316 µM
[34] = second compound 10 µM, first compound 1 µM
[35] = second compound 10 µM, first compound 3.16 µM
[36] = second compound 10 µM, first compound 10 µM
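Also: spheroids exposed to compounds for 7 days before viability readout.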
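For viability, T/C in this document: luminescence signal used as surrogate for viable cell content; 100% = DMSO vehicle control viability.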

CC(C)n1c(=O)n(C)c2cnc3cc(F)c(-c4ccc(OCCCN5CCCCC5)nc4)cc3c21 + COC1C(OC(N)=O)C(O)C(Oc2ccc3c(O)c(NC(=O)c4ccc(O)c(CC=C(C)C)c4)c(=O)oc3c2C)OC1(C)C
IC50 (second compound 0.0316 µM): > 10 µM | IC50 (second compound 0.1 µM): > 10 µM | IC50 (second compound 0.316 µM): > 10 µM | IC50 (second compound 1 µM): > 10 µM | IC50 (second compound 3.16 µM): > 10 µM | IC50 (second compound 10 µM): > 10 µM | viability, T/C [1]: 96% | viability, T/C [2]: 93% | viability, T/C [3]: 99.2% | viability, T/C [4]: 105% | viability, T/C [5]: 92.8% | viability, T/C [6]: 82.5% | viability, T/C [7]: 94% | viability, T/C [8]: 96.7% | viability, T/C [9]: 92.9% | viability, T/C [10]: 90% | viability, T/C [11]: 100% | viability, T/C [12]: 90.8% | viability, T/C [13]: 95.5% | viability, T/C [14]: 98.9% | viability, T/C [15]: 109% | viability, T/C [16]: 87.3% | viability, T/C [17]: 104% | viability, T/C [18]: 78.9% | viability, T/C [19]: 105% | viability, T/C [20]: 106% | viability, T/C [21]: 92.9% | viability, T/C [22]: 94.1% | viability, T/C [23]: 90.8% | viability, T/C [24]: 82.7% | viability, T/C [25]: 96% | viability, T/C [26]: 104% | viability, T/C [27]: 98.7% | viability, T/C [28]: 91.7% | viability, T/C [29]: 90.5% | viability, T/C [30]: 86.9% | viability, T/C [31]: 96.2% | viability, T/C [32]: 91.1% | viability, T/C [33]: 104% | viability, T/C [34]: 90.5% | viability, T/C [35]: 107% | viability, T/C [36]: 88.7%

CC1COCCN1c1cc(-c2ccnn2C)c2ccnc(-c3ccn[nH]3)c2n1 (stereo unspecified) + COC1C(OC(N)=O)C(O)C(Oc2ccc3c(O)c(NC(=O)c4ccc(O)c(CC=C(C)C)c4)c(=O)oc3c2C)OC1(C)C
IC50 (second compound 0.0316 µM): 1.52 µM | IC50 (second compound 0.1 µM): 0.986 µM | IC50 (second compound 0.316 µM): 1.21 µM | IC50 (second compound 1 µM): 0.864 µM | IC50 (second compound 3.16 µM): 0.952 µM | IC50 (second compound 10 µM): 0.948 µM | viability, T/C [1]: 86.7% | viability, T/C [2]: 80.9% | viability, T/C [3]: 68.6% | viability, T/C [4]: 54.8% | viability, T/C [5]: 42.2% | viability, T/C [6]: 38.5% | viability, T/C [7]: 94.1% | viability, T/C [8]: 83.4% | viability, T/C [9]: 70% | viability, T/C [10]: 47.1% | viability, T/C [11]: 43.8% | viability, T/C [12]: 47.3% | viability, T/C [13]: 94.2% | viability, T/C [14]: 76.3% | viability, T/C [15]: 63.7% | viability, T/C [16]: 51.6% | viability, T/C [17]: 41.2% | viability, T/C [18]: 45.1% | viability, T/C [19]: 92.5% | viability, T/C [20]: 80.9% | viability, T/C [21]: 63.4% | viability, T/C [22]: 47.6% | viability, T/C [23]: 42.1% | viability, T/C [24]: 42.3% | viability, T/C [25]: 85.1% | viability, T/C [26]: 79.8% | viability, T/C [27]: 66.8% | viability, T/C [28]: 49.9% | viability, T/C [29]: 38.3% | viability, T/C [30]: 38.1% | viability, T/C [31]: 93% | viability, T/C [32]: 82.8% | viability, T/C [33]: 67.2% | viability, T/C [34]: 47.6% | viability, T/C [35]: 43.7% | viability, T/C [36]: 41.8%

CCCS(=O)(=O)Nc1ccc(F)c(C(=O)c2c[nH]c3ncc(-c4ccc(Cl)cc4)cc23)c1F + COC1C(OC(N)=O)C(O)C(Oc2ccc3c(O)c(NC(=O)c4ccc(O)c(CC=C(C)C)c4)c(=O)oc3c2C)OC1(C)C
IC50 (second compound 0.0316 µM): > 10 µM | IC50 (second compound 0.1 µM): > 10 µM | IC50 (second compound 0.316 µM): > 10 µM | IC50 (second compound 1 µM): > 10 µM | IC50 (second compound 3.16 µM): > 10 µM | IC50 (second compound 10 µM): > 10 µM | viability, T/C [1]: 118% | viability, T/C [2]: 98.8% | viability, T/C [3]: 99.4% | viability, T/C [4]: 107% | viability, T/C [5]: 90.7% | viability, T/C [6]: 62.5% | viability, T/C [7]: 113% | viability, T/C [8]: 108% | viability, T/C [9]: 108% | viability, T/C [10]: 112% | viability, T/C [11]: 89.8% | viability, T/C [12]: 57.7% | viability, T/C [13]: 104% | viability, T/C [14]: 92.5% | viability, T/C [15]: 98.9% | viability, T/C [16]: 99.8% | viability, T/C [17]: 94.9% | viability, T/C [18]: 57.3% | viability, T/C [19]: 96.9% | viability, T/C [20]: 111% | viability, T/C [21]: 102% | viability, T/C [22]: 107% | viability, T/C [23]: 94.2% | viability, T/C [24]: 60.9% | viability, T/C [25]: 102% | viability, T/C [26]: 103% | viability, T/C [27]: 105% | viability, T/C [28]: 91.2% | viability, T/C [29]: 89.5% | viability, T/C [30]: 53.2% | viability, T/C [31]: 89.3% | viability, T/C [32]: 93.3% | viability, T/C [33]: 98.8% | viability, T/C [34]: 106% | viability, T/C [35]: 93.2% | viability, T/C [36]: 64.7%
